# Reference: patent US20230212549A1, “COMPOUNDS COMPRISING A […] LIGAND AND USE THEREOF” (priority 2021, published 2023)
# Numbered stars: 1 amine (or outer) side, 2 acyl side, 3 side chain; on linkers, the order of the positions; unused ones are H or OH. Bridge positions count the residues as written; N and C are the ends. Square brackets hold non-standard residues; d marks the D form. Peptide text beside a SMILES is read from it. * marks the point of attachment. X1 = NCCNCC(CNCCN)C(=O)N1CCN(CC(=O)NCCCOCCOCCOCCCN*)CC1; mXylylene = c1cc(C[*:1])cc(C[*:2])c1; Suc = O=C(CCC(=O)[*:2])[*:1]; Nle = CCCC[C@H](N)C(=O)O
# What was measured:
# [1] = Radiochemical purity by HPLC of ^99mTc-labeled compounds; format: physicochemical; details: 99Tc-labeled compounds
# Description: 100-500 MBq of ^99mTcO4 (in saline) were mixed with 11 μl of 0.5 M phosphate buffer pH 11.5-12.0 and 1.1 μl of 0.1 M trisodium citrate per 100 μl radionuclide solution. […] The mixture was incubated for 30 min at 25-50′° C. At the end of the incubation time, the mixture was neutralized with 3.0 μl 1 M HCl per 10 μl phosphate buffer and TWEEN-20 was added at a final concentration of 0.100.
# Human recombinant FAP [2] = biological target: T1, Human recombinant FAP (Homo sapiens, UniProt Q12884); assay: FRET-based FAP protease activity assay; format: biochemical; set-up: purchased R&D systems 3715-SE; details: pIC50 Category (activity), Recombinant human FAP
# [3] = biological target: T2, FAP-expressing human WI-38 fibroblasts (Homo sapiens, UniProt Q12884); assay: Competitive FACS binding assay
# T2 construct: FAP-expressing human WI-38 fibroblasts (ECACC) were cultured in EMEM; host or cells: WI-38 human fibroblasts
# Description: Cells were analyzed in an Attune NxT flow cytometer. […] […].
# Cells were analyzed in an Attune NxT flow cytometer. […]
# in vivo [4] = details: swiss nude, mouse, iv
# Human recombinant FAP [5] = biological target: T1, Human recombinant FAP; assay: Surface plasmon resonance (Biacore) assay; format: binding
# in vivo [6] = details: female, athymic nude, mouse, iv
# T2 sequence (Q12884 whole entry): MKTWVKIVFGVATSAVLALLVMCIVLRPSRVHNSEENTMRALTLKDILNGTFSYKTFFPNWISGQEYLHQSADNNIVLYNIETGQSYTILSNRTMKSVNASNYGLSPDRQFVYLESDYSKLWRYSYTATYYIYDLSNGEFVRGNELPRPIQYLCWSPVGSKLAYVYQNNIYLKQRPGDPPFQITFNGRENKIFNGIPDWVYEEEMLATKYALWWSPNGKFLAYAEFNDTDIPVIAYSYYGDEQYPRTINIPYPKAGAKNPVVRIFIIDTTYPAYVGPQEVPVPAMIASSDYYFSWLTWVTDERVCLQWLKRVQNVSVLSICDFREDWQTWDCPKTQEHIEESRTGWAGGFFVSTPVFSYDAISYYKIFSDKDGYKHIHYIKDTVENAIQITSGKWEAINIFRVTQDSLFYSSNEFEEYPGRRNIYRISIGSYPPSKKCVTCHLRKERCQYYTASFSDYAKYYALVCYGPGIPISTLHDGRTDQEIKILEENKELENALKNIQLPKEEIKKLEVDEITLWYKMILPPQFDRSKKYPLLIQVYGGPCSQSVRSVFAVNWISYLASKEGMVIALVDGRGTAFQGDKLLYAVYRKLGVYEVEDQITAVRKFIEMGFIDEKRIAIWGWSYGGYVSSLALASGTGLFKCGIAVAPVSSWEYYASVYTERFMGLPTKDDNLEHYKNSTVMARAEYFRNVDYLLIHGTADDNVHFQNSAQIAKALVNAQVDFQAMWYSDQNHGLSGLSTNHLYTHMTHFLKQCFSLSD
# T1 sequence (Q12884 whole entry): as above
SMILES,HPLC Area % appr. 4 h post end of synthesis [1] [%],HPLC Area % at end of synthesis [1] [%],IC50 (Human recombinant FAP [2]) [nM],IC50 [3] [nM],tissue uptake at 1 h (in vivo [4]; blood pool surrogate (BPS)) [%ID/g],tissue uptake at 3 h (in vivo [4]; blood pool surrogate (BPS)) [%ID/g],tissue uptake at 6 h (in vivo [4]; blood pool surrogate (BPS)) [%ID/g],tissue uptake at 1 h (in vivo [4]; kidneys) [%ID/g],tissue uptake at 3 h (in vivo [4]; kidneys) [%ID/g],tissue uptake at 6 h (in vivo [4]; kidneys) [%ID/g],tissue uptake at 1 h (in vivo [4]; tumor) [%ID/g],tissue uptake at 3 h (in vivo [4]; tumor) [%ID/g],tissue uptake at 6 h (in vivo [4]; tumor) [%ID/g],Kd (Human recombinant FAP [5]) [nM],other results
"CCCC[C@H](NC(=O)CCC(=O)NCCCOCCOCCOCCCNC(=O)CN1CCN(C(=O)C(CNCCN)CNCCN)CC1)C(=O)N[C@H]1CSCc2cccc(c2)CSC[C@@H](C(=O)O)NC(=O)[C@H](Cc2ccccc2)NC(=O)[C@H](CCC(=O)O)NC(=O)[C@H]([C@@H](C)O)NC(=O)[C@@H]2CCCN2C(=O)[C@@H]2CCCN2C1=O [3BP-4782, N4Ac-PPAc-Ttds-Nle-[Cys(3MeBn)-Pro-Pro-Thr-Glu-Phe-Cys]-OH] ({X1-Suc}-[Nle]CPPTEFC-OH; linker 2-8 via mXylylene)",95.8,97.1,10 to 79.4,10 to 79.4,0.69,0.47,0.36,7.28,5.78,4.24,6.2,6.77,7.17,,
"CCCCNC(=O)N[C@H]1CSCc2cc(CSCCNC(=O)CCP(=O)(O)CN3CCN(CP(=O)(O)CO)CCN(CP(=O)(O)CO)CC3)cc(c2)CSCC(C(=O)O)NC(=O)[C@H](Cc2ccccc2)NC(=O)[C@H](CCC(N)=O)NC(=O)[C@H]([C@@H](C)O)NC(=O)[C@@H]2CCCN2C(=O)[C@@H]2CCCN2C1=O (stereo partly drawn) [3BP-4768, nBu-CAyl-[Cys(tMeBn(NOPO-AET))-Pro-Pro-Thr-Gln-Phe-Cys]-OH]",,,< 10,< 10,,,,,,,,,,< 10,"tissue uptake at 0.25 h (in vivo [6]; blood pool surrogate (BPS), uptake BPS 0.25 h, ^68Ga-labeled, BPS (blood pool surrogate), PET/CT, 0.25 h post tracer injection): 2.54 %ID/g; tissue uptake at 1 h (in vivo [6]; blood pool surrogate (BPS), uptake BPS 1 h, ^68Ga-labeled, BPS (blood pool surrogate), PET/CT, 1 h post tracer injection): 0.78 %ID/g; tissue uptake at 3 h (in vivo [6]; blood pool surrogate (BPS), uptake BPS 3 h, ^68Ga-labeled, BPS (blood pool surrogate), PET/CT, 3 h post tracer injection): 0.27 %ID/g; tissue uptake at 0.25 h (in vivo [6]; kidneys, uptake Kidneys 0.25 h, ^68Ga-labeled, PET/CT, 0.25 h post tracer injection): 18.4 %ID/g; tissue uptake at 1 h (in vivo [6]; kidneys, uptake Kidneys 1 h, ^68Ga-labeled, PET/CT, 1 h post tracer injection): 2.45 %ID/g; tissue uptake at 3 h (in vivo [6]; kidneys, uptake Kidneys 3 h, ^68Ga-labeled, PET/CT, 3 h post tracer injection): 0.67 %ID/g; tissue uptake at 0.25 h (in vivo [6]; tumor, uptake Tumor 0.25 h, ^68Ga-labeled, HEK-FAP tumor, PET/CT, 0.25 h post tracer injection): 7.82 %ID/g; tissue uptake at 1 h (in vivo [6]; tumor, uptake Tumor 1 h, ^68Ga-labeled, HEK-FAP tumor, PET/CT, 1 h post tracer injection): 9.42 %ID/g; tissue uptake at 3 h (in vivo [6]; tumor, uptake Tumor 3 h, ^68Ga-labeled, HEK-FAP tumor, PET/CT, 3 h post tracer injection): 9.2 %ID/g"
"CCCC[C@H](NC(=O)CCC(=O)NCCCOCCOCCOCCCNC(=O)CN1CCN(CC(=O)O)CCN(CC(=O)O)CC1)C(=O)N[C@H]1CSCc2cccc(c2)CSCC(C(=O)O)NC(=O)[C@H](Cc2ccccc2)NC(=O)[C@H](CCC(N)=O)NC(=O)[C@H]([C@@H](C)O)NC(=O)[C@@H]2CCCN2C(=O)[C@@H]2CCCN2C1=O (stereo partly drawn) [3BP-5201, NOTA-Ttds-Nle-[Cys(3MeBn)-Pro-Pro-Thr-Gln-Phe-Cys]-OH]",,,10 to 79.4,< 10,,,,,,,,,,< 10,tissue uptake at 0.25 h (in vivo [6]; blood pool surrogate (BPS)): 2.31 %ID/g; tissue uptake at 1 h (in vivo [6]; blood pool surrogate (BPS)): 0.85 %ID/g; tissue uptake at 3 h (in vivo [6]; blood pool surrogate (BPS)): 0.38 %ID/g; tissue uptake at 0.25 h (in vivo [6]; kidneys): 9.27 %ID/g; tissue uptake at 1 h (in vivo [6]; kidneys): 1.97 %ID/g; tissue uptake at 3 h (in vivo [6]; kidneys): 1 %ID/g; tissue uptake at 0.25 h (in vivo [6]; tumor): 5.56 %ID/g; tissue uptake at 1 h (in vivo [6]; tumor): 6.3 %ID/g; tissue uptake at 3 h (in vivo [6]; tumor): 6.25 %ID/g
"CCCC[C@H](NC(=O)CCC(=O)NCCCOCCOCCOCCCNC(=O)CCOCCOCCOCCOCCOCCOCCNC(=O)C(CNCCN)CNCCN)C(=O)N[C@H]1CSCc2cccc(c2)CSCC(C(=O)O)NC(=O)[C@H](Cc2ccccc2)NC(=O)[C@H](CCC(N)=O)NC(=O)[C@H]([C@@H](C)O)NC(=O)[C@@H]2CCCN2C(=O)[C@@H]2CCCN2C1=O (stereo partly drawn) [3BP-4552, N4Ac-PEG6-Ttds-Nle-[Cys(3MeBn)-Pro-Pro-Thr-Gln-Phe-Cys]-OH]",,88.3,10 to 79.4,10 to 79.4,0.52,0.14,0.07,3.17,3.4,1.34,7.92,6.86,5.21,,
"CCCC[C@H](NC(=O)CCC(=O)NCCCOCCOCCOCCCNC(=O)CN1CCN(C(=O)C(CNCCN)CNCCN)CC1)C(=O)N[C@H]1CSCc2cncc(c2)CSCC(C(=O)O)NC(=O)[C@H](Cc2ccccc2)NC(=O)[C@H](CCC(N)=O)NC(=O)[C@H]([C@@H](C)O)NC(=O)[C@@H]2CCCN2C(=O)[C@@H]2CCCN2C1=O (stereo partly drawn) [3BP-4774, N4Ac-PPAc-Ttds-Nle-[Cys(3Lut)-Pro-Pro-Thr-Gln-Phe-Cys]-OH]",86.1,88.8,10 to 79.4,10 to 79.4,0.08,0.06,0.03,1.87,0.85,0.48,6.14,3.7,1.74,,
